Laboratory results: patent US6768007B2, “Substituted 3′,4′-di-O-camphanoyl-(+)-cis-khellactone analogs, compositions thereof, and methods for using thereof” (Panacos Pharmaceuticals, Inc., priority 2001, dated 2004)
Read-outs that look alike come from different tables or passages of the source.

Key:
HIV-1 (IIIB isolate) = assay: Anti-HIV activity in H9 lymphocytes (p24 antigen ELISA); type: cell-based; settings: H-9 lymphocytes; for Anti-HIV Activity EC50: HIV-1 IIIB, p24 ELISA, day 5, average of at least two experiments; for Therapeutic Index (TI = IC50/EC50): ratio of IC50 to EC50; for anti-viral activity (in words): summary of Table 1
Protocol: (§1) The biological evaluation of HIV-1 inhibition was carried out according to established protocols, (Kashiwada, Y., et al., J. Med. Chem. 39:1016-1017 (1996); Hashimoto, F., et al., Bioorg. & Med. Chem. 5:2133-2143 (1997)). The T cell line, H9, was maintained in continuous culture log-phase growth in complete medium (RPMI 1640 with 10% fetal calf serum supplemented with L-glutamine at 5% CO2 and 37° C.). Test samples were first dissolved in dimethyl sulfoxide at a concentration of 10 mg/ml to generate master stocks with dilutions made into tissue culture media to generate working stocks. The following drug concentrations were used routinely for screening: 50, 5, and 0.5 μg/mL. For agents found to be active, additional dilutions were prepared for subsequent testing so that an accurate EC50 value (defined below) could be determined. As the test samples were being prepared, an aliquot of the H9 cell line was infected with HIV-1 (IIIB isolate) while a second aliquot was mock-infected with complete medium. […] An amount of virus equal to approximately 6.25×10^4 TCID50 was added to the first aliquot of 3.5×10^6H9 cells. The second aliquot received tissue culture medium only, and these mock-infected cells were used for toxicity determinations (IC50 defined below). After a 4 h incubation at 37° C. and 5% CO2, both cell populations were washed three times with fresh medium and then added to the appropriate wells of a 96-well plate containing various concentrations of the test drug or tissue culture medium (positive infected control/negative drug control). In addition, AZT was assayed during each experiment as a positive drug control. The plates were incubated at 37° C. and 5% CO2 for 5 days. Cell-free culture supernatants were collected on Day 5 for use in a p24 antigen-capture ELISA assay to determine virus replication. p24 is the core protein of HIV and therefore is an indirect measure of the amount of virus present in the culture supernatants. Toxicity was determined using a viable dye method (XTT) on mock-infected H9 cells that were treated with test sample, AZT or no drug. If a test sample suppressed viral replication and was toxic to less than 50% of the cells, its effects were reported in the following terms: IC50, the concentration of test sample which was toxic to 50% of the mock-infected H9 cells; EC50, the concentration of the test sample which was able to suppress HIV replication by 50%; and Therapeutic Index (TI), the ratio of IC50 to EC50.
(§2) Compounds of the present invention were assayed for anti-HIV activity according to the following assay procedures. The T cell line, H9, and the promonocytic cell line, U937, were maintained separately in continuous culture with complete medium (RPMI 1640 with 10% fetal calf serum) at 5% CO2 and 37° C. The cell lines were used in experiments only when in the logarithmic phase of growth, whereas uninfected peripheral blood mononuclear cells (PBMCs) were first stimulated with PHA (1 μg/mL) for three days. All cell targets were incubated with HIV-1 (IIIB isolate, 1×10^6 TCID50/mL) for one hour at 37° C. and 5% CO2. The cell lines and PBMCs were washed thoroughly to remove unadsorbed virions and resuspended at 4×10^5 cells/mL in complete medium or complete medium with 10% v/v interleukin 2 (IL-2), respectively. […] aliquots were placed into wells of 96-well tissue culture plates containing an equal volume of test compounds (diluted in the appropriate culture medium). The toxicity of each compound was assessed by determining the viability of compound-exposed uninfected cells after five days at 37° C. and 5% CO2. A p24 antigen ELISA assay was used to determine the level of virus released in the medium of the HIV-infected cultures. The p24 antigen assay used a HIV-1 anti-p24 specific monoclonal antibody as the capture antibody coated onto 96-well plates. […]

mock-infected H9 cells = assay: Cytotoxicity in mock-infected (uninfected) H9 cells; type: cell-based
Protocol: as §1, §2

SMILES	Anti-HIV Activity EC50 (HIV-1 (IIIB isolate))	Therapeutic Index (TI = IC50/EC50) (HIV-1 (IIIB isolate))	Cytotoxicity IC50 (mock-infected H9 cells)	anti-viral activity (in words) (HIV-1 (IIIB isolate))	Cytotoxicity IC50 (mock-infected H9 cells; uninfected H9 cells, five days, average of at least two experiments)
Cc1c(CBr)c(=O)oc2c3c(ccc12)OC(C)(C)[C@H](OC(=O)[C@@]12CC[C@@](C)(C(=O)O1)C2(C)C)[C@@H]3OC(=O)[C@@]12CC[C@@](C)(C(=O)O1)C2(C)C (relative stereo) [Compound 3, (3′R,4′R)-3′,4′-Di-O-(S)-(−)-camphanoyl-3-bromomethyl-4-methyl-(+)-cis-khellactone]	0.000192 mg/L	101,000	19.4 mg/L	most potent	
Cc1cc(=O)oc2c3c(c(C(Br)Br)cc12)OC(C)(C)[C@H](OC(=O)[C@@]12CCC(C)(C(=O)O1)C2(C)C)[C@@H]3OC(=O)[C@@]12CCC(C)(C(=O)O1)C2(C)C (relative stereo) [Compound 5, (3′R,4′R)-3′,4′-Di-O-(S)-(−)-camphanoyl-6-dibromomethyl-4-methyl-(+)-cis-khellactone]	0.0215 mg/L	81.8	1.76 mg/L		
CC(=O)OCc1cc2ccc3c(c2oc1=O)[C@@H](OC(=O)[C@@]12CCC(C)(C(=O)O1)C2(C)C)[C@@H](OC(=O)[C@@]12CCC(C)(C(=O)O1)C2(C)C)C(C)(C)O3 (relative stereo) [Compound 7, (3′R,4′R)-3′,4′-Di-O-(S)-(−)-camphanoyl-3-acetoxymethyl-(+)-cis-khellactone]	0.00103 mg/L	3,243	3.34 mg/L	most potent	
CC(=O)OCc1c(C)c2ccc3c(c2oc1=O)[C@@H](OC(=O)[C@@]12CC[C@@](C)(C(=O)O1)C2(C)C)[C@@H](OC(=O)[C@@]12CC[C@@](C)(C(=O)O1)C2(C)C)C(C)(C)O3 (relative stereo) [Compound 8, (3′R,4′R)-3′,4′-Di-O-(S)-(−)-camphanoyl-3-acetoxymethyl-4-methyl-(+)-cis-khellactone]	0.00012 mg/L	157,000	18.80 mg/L	most potent	
CC(=O)OCc1cc2c(C)cc(=O)oc2c2c1OC(C)(C)[C@H](OC(=O)[C@@]13CCC(C)(C(=O)O1)C3(C)C)[C@@H]2OC(=O)[C@@]12CCC(C)(C(=O)O1)C2(C)C (relative stereo) [Compound 9, (3′R,4′R)-3′,4′-Di-O-(S)-(−)-camphanoyl-6-acetoxymethyl-4-methyl-(+)-cis-khellactone]	0.275 mg/L	78.9	21.70 mg/L		
COP(=O)(OC)OCc1cc2c(C)cc(=O)oc2c2c1OC(C)(C)[C@H](OC(=O)[C@@]13CCC(C)(C(=O)O1)C3(C)C)[C@@H]2OC(=O)[C@@]12CCC(C)(C(=O)O1)C2(C)C (relative stereo) [Compound 13, (3′R,4′R)-3′,4′-Di-O-(S)-(−)-camphanoyl-6-(dimethylphosphate)methyl-4-methyl-(+)-cis-khellactone]	0.504 mg/L	3.79			1.91 mg/L

Second part, led by results:

Anti-HIV Activity EC50 (HIV-1 (IIIB isolate))	SMILES	Therapeutic Index (TI = IC50/EC50) (HIV-1 (IIIB isolate))	Cytotoxicity IC50 (mock-infected H9 cells)	anti-viral activity (in words) (HIV-1 (IIIB isolate))	Cytotoxicity IC50 (mock-infected H9 cells; uninfected H9 cells, five days, average of at least two experiments)
0.0854 mg/L	CC1(C)Oc2ccc3cc(CBr)c(=O)oc3c2[C@@H](OC(=O)[C@@]23CC[C@@](C)(C(=O)O2)C3(C)C)[C@H]1OC(=O)[C@@]12CC[C@@](C)(C(=O)O1)C2(C)C (relative stereo) [Compound 1, (3′R,4′R)-3′,4′-Di-O-(S)-(−)-camphanoyl-3-bromomethyl-(+)-cis-khellactone]	40	3.38 mg/L		
0.000119 mg/L	CC1(C)Oc2ccc3cc(C(Br)Br)c(=O)oc3c2[C@@H](OC(=O)[C@@]23CCC(C)(C(=O)O2)C3(C)C)[C@H]1OC(=O)[C@@]12CCC(C)(C(=O)O1)C2(C)C (relative stereo) [Compound 2, (3′R,4′R)-3′,4′-Di-O-(S)-(−)-camphanoyl-3-dibromomethyl-(+)-cis-khellactone]	26,890	3.20 mg/L	most potent	
0.0176 mg/L	CC1(C)Oc2c(CBr)cc3ccc(=O)oc3c2[C@@H](OC(=O)[C@@]23CCC(C)(C(=O)O2)C3(C)C)[C@H]1OC(=O)[C@@]12CCC(C)(C(=O)O1)C2(C)C (relative stereo) [Compound 4, (3′R,4′R)-3′,4′-Di-O-(S)-(−)-camphanoyl-6-bromomethyl-(+)-cis-khellactone]	113	1.99 mg/L		
0.025 mg/L	Cc1cc(=O)oc2c3c(c(CBr)cc12)OC(C)(C)[C@H](OC(=O)[C@@]12CC[C@@](C)(C(=O)O1)C2(C)C)[C@@H]3OC(=O)[C@@]12CC[C@@](C)(C(=O)O1)C2(C)C (relative stereo) [Compound 6, (3′R,4′R)-3′,4′-Di-O-(S)-(−)-camphanoyl-6-bromomethyl-4-methyl-(+)-cis-khellactone]	1,000	25.00 mg/L		
0.000188 mg/L	CC1(C)Oc2ccc3cc(CO)c(=O)oc3c2[C@@H](OC(=O)[C@@]23CCC(C)(C(=O)O2)C3(C)C)[C@H]1OC(=O)[C@@]12CCC(C)(C(=O)O1)C2(C)C (relative stereo) [Compound 10, (3′R,4′R)-3′,4′-Di-O-(S)-(−)-camphanoyl-3-hydroxymethyl-(+)-cis-khellactone]	188,032	35.35 mg/L	most potent	
0.000625 mg/L	Cc1cc(=O)oc2c3c(c(CO)cc12)OC(C)(C)[C@H](OC(=O)[C@@]12CCC(C)(C(=O)O1)C2(C)C)[C@@H]3OC(=O)[C@@]12CCC(C)(C(=O)O1)C2(C)C (relative stereo) [Compound 12, (3′R,4′R)-3′,4′-Di-O-(S)-(−)-camphanoyl-6-hydroxymethyl-4-methyl-(+)-cis-khellactone]	30,900	19.3 mg/L	most potent	
0.39 mg/L	CC1(C)Oc2ccc3cc(CN)c(=O)oc3c2[C@@H](OC(=O)[C@@]23CC[C@@](C)(C(=O)O2)C3(C)C)[C@H]1OC(=O)[C@@]12CC[C@@](C)(C(=O)O1)C2(C)C (relative stereo) [Compound 14, (3′R,4′R)-3′,4′-Di-O-(S)-(−)-camphanoyl-3-aminomethyl-(+)-cis-khellactone]		32.81 mg/L		
0.001 mg/L	Cc1cc(=O)oc2c3c(c(CN)cc12)OC(C)(C)[C@H](OC(=O)[C@@]12CC[C@@](C)(C(=O)O1)C2(C)C)[C@@H]3OC(=O)[C@@]12CC[C@@](C)(C(=O)O1)C2(C)C (relative stereo) [Compound 15, (3′R,4′R)-3′,4′-di-O-(S)-(−)-camphanoyl-6-aminomethyl-4-methyl-(+)-cis-khellactone]	24,100	24.1 mg/L	most potent	
0.69 mg/L	CCN(CC)Cc1cc2ccc3c(c2oc1=O)[C@@H](OC(=O)[C@@]12CC[C@@](C)(C(=O)O1)C2(C)C)[C@@H](OC(=O)[C@@]12CC[C@@](C)(C(=O)O1)C2(C)C)C(C)(C)O3 (relative stereo) [Compound 16, (3′R,4′R)-3′,4′-Di-O-(S)-(−)-camphanoyl-3-diethylaminomethyl-(+)-cis-khellactone]	62	43.01 mg/L		
